pEC50, pIC50: −log10 of the molar value.
Key:
dengue virus type 3 = experiment: Antiviral activity against Dengue virus 3 infected in syrian hamster BHK-21 cells assessed as inhibition of plaque formation pretreated with compound for 45 mins followed by viral infection for 24 hrs; format: functional; settings: BHK-21, 24.75 h, time 1485 min
Kunjin virus = experiment: Antiviral activity against Kunjin virus; format: functional, organism-based; settings: West Nile virus
[1] = Cytotoxicity against mouse BaF3 cells expressing BCR-ABL assessed as cell viability; format: toxicity, cell-based
dengue virus type 1 = experiment: Antiviral activity against Dengue virus 1 infected in syrian hamster BHK-21 cells assessed as inhibition of plaque formation pretreated with compound for 45 mins followed by viral infection for 24 hrs; format: functional; settings: BHK-21, 24.75 h, time 1485 min
dengue virus type 2 = experiment: Antiviral activity against Dengue virus 2 infected in syrian hamster BHK-21 cells assessed as inhibition of plaque formation pretreated with compound for 45 mins followed by viral infection for 24 hrs; format: functional; settings: BHK-21, 24.75 h, time 1485 min
dengue virus type 4 = experiment: Antiviral activity against Dengue virus 4 infected in syrian hamster BHK-21 cells assessed as inhibition of plaque formation pretreated with compound for 45 mins followed by viral infection for 24 hrs; format: functional; settings: BHK-21, 24.75 h, time 1485 min

IC90 (dengue virus type 3): 20 µM
pEC50 (Kunjin virus): < 4.70
IC90 (dengue virus type 1): 20 µM
IC90 (dengue virus type 2): 20 µM
IC90 (dengue virus type 4): 20 µM
Structure (SMILES): NC(=O)c1cccc(-c2cc(Nc3ccc(OC(F)(F)F)cc3)ncn2)c1
pIC50 [1]: < 5.00
